# Measured values: PubChem BioAssay AID1421 (Emory University Molecular Libraries Screening Center, 2008)
# The source made the active and inactive calls. The rule behind the calls is not given here.
# Target: Prostaglandin E2 receptor EP2 subtype (Homo sapiens) (UniProt P43116)
# Assay: EP2 receptor modulators, dose response, cell-based, human EP2, PGE2 EC50 shift (AID 1421)
# Details: EP2-expressing cells, PGE2 EC50 shift by compound
# Chain of Prostaglandin E2 receptor EP2 subtype (Homo sapiens) (P43116 whole entry, looked up): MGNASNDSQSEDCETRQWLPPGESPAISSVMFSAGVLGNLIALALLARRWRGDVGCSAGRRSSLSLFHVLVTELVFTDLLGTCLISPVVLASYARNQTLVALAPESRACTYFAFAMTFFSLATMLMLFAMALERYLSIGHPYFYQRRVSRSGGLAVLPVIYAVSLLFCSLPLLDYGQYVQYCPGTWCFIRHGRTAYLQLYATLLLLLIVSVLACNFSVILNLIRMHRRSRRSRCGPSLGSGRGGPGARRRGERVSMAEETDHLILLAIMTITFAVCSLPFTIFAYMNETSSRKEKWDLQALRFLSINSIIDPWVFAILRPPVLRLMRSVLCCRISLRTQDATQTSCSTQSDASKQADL
row,SMILES,outcome
1,Cc1noc(C)c1CSc1ncnc2sc3c(c12)CCC3,active
2,O=C(O)COc1ccc(/C=C/c2ccc3cccc([N+](=O)[O-])c3n2)cc1,active
3,Fc1ccc(Oc2nc(-c3ccccc3)nnc2C(F)(F)F)cc1,active
4,Cc1cc(C#N)c(SCC(N)=O)nc1-c1ccc(F)cc1,active
5,Cc1ccc(C(=O)Nc2ccccc2C(=O)NCc2ccccc2)cc1,active
6,CC(C)C(=O)c1cc2c(cc1NC(=O)c1ccccc1)OCCO2,active
7,CC(C)CCn1c(=O)c2ccccc2c2ccccc2c1=O,active
8,O=C(Nc1ccccc1Sc1ccccc1)c1ccc(F)cc1,active
9,Cc1ccc(O)c(C2=Nc3ccccc3N=C(c3cccs3)C2)c1,active
10,C/C(=N\O)C(=O)OC1CC(C)CCC1C(C)C (stereo unspecified),active
11,Cc1ccccc1CN(C)CC(=O)Nc1ccccc1Oc1ccccc1,active
12,COc1ccc(-c2cc(C(F)(F)F)nc(N3CCOCC3)n2)cc1OC,active

# Same assay, conditions: EP2-expressing cells, PGE2 EC50 shift by compound; measured here: PGE2 EC50 at 6.7 uM compound
row,SMILES,PGE2 EC50 with compound [nM]
1,CCN1C(=O)/C(=C2/C=CC=CN2C)SC1=S,1.64
2,Cc1nn2c(N3CCN(C(=O)c4ccco4)CC3)cc(C(C)(C)C)nc2c1-c1ccccc1,1.15
3,Cc1ccc(Oc2nc(-c3ccccc3)ncc2S(C)(=O)=O)cc1,1.12
4,COc1cccc2[nH]c3c(N4CC(C)CC(C)C4)ncnc3c12 (stereo unspecified),1.15
5,CCCC1=C(C(=O)OCC)C(c2cccs2)C(C#N)=C(N)O1 (stereo unspecified),0.82
6,CC(C)CCn1c(O)c(N=NC(=O)c2ccco2)c2ccccc21,1.03
7,Cc1noc(C)c1CSc1ncnc2sc3c(c12)CCC3,0.87
8,N#Cc1c(-c2cccs2)nc(SCc2ccc(Cl)cc2)[nH]c1=O,2.85
9,Cc1cc2ccc(C)c(C)c2nc1SCC#N,1.18
10,O=C(CSCc1c(Cl)cccc1Cl)Nc1ccccc1-c1ccccc1,1.36
11,O=C(Cc1ccc(Br)cc1)Nc1ccccc1Sc1ccccc1,1.2
12,O=C(/C(=C/O)N=Nc1ccccc1)c1cccs1,1.19
13,COc1ccc(-n2c(COc3cccc4ccccc34)nnc2SCC(=O)NCc2ccco2)cc1,1.07
14,COc1ccc(-c2nc(NC(C)=O)sc2-c2ccc(OC)cc2)cc1,0.95
15,C=CCSc1nc2ccccc2n1S(=O)(=O)c1ccc(C)cc1,0.95
16,CN(C)c1ncc(S(=O)(=O)c2ccc(Cl)cc2)c(-c2ccccc2)n1,1.08
17,CC1CCN(c2ccccc2NC(=O)c2ccc(F)cc2)CC1,0.69
18,Brc1ccc(Cn2c(-c3ccc(Br)o3)nc3ccccc32)o1,2.59
19,O=S(Cc1cc(Sc2ccccc2)nc(-c2ccccc2)n1)c1ccccc1 (stereo unspecified),1.15
20,C=CCN1C(=O)N(/C=C/C)c2cccc3cccc1c23,2.79
21,Cc1cc(C(=O)Nc2cccc(/C=C/C(=O)O)c2)c(C)o1,0.36
22,O=C(O)COc1ccc(/C=C/c2ccc3cccc([N+](=O)[O-])c3n2)cc1,2.11
23,O=C(OCC(=O)N1N=C(c2ccc(Cl)cc2)CC1c1ccco1)c1ccco1 (stereo unspecified),1.63
24,COc1ccc(CSC2=C(C#N)C(=O)NC3(CCCCC3)S2)cc1,1.3
25,COc1ccc2ccc(=O)oc2c1CC=C(C)C,1.13
26,COc1cc(CN2CCC(C(=O)N3CCN(c4ccccc4F)CC3)CC2)cc(OC)c1OC,0.75

row,SMILES,PGE2 EC50 with compound [nM]
1,O=c1c2c(n3nnnc3n1-c1ccccc1)-c1ccccc1CC21CCCC1,1.01
2,COC(=O)c1c(NC(=O)c2cccs2)sc2c1CCC(C)C2 (stereo unspecified),0.96
3,CC(=O)c1ccc(-n2c(C)ccc2-c2ccccc2)cc1,2.52
4,COc1cc(O)c2c(=O)cc(C)oc2c1CC=C(C)C,2.64
5,CN(c1ccccc1)c1nc(N2CCCC2)nc(-n2ccnc2)n1,0.79
6,Cc1ccc(C2CC2c2n[nH]c(=S)n2-c2ccc(Cl)cc2)cc1 (stereo unspecified),1.23
7,COc1ccc(C(=O)c2ccccc2)c(O)c1,0.92
8,Fc1ccc(Oc2nc(-c3ccccc3)nnc2C(F)(F)F)cc1,0.66
9,CCC1Oc2ccc(C)cc2N(Cc2cccc(C)c2)C1=O (stereo unspecified),1.24
10,Cc1cc([N+](=O)[O-])c(C)c(Br)c1C,1.11
11,Clc1ccc(-c2nn3c(-c4ccccc4)nnc3s2)cc1,0.93
12,C=CCc1cc(C=O)cc(OCC)c1OCc1ccc(Cl)cc1,1.29
13,CCn1c(=NC(=O)c2ccc(S(=O)(=O)N3CCOCC3)cc2)sc2cccc(OC)c21,0.91
14,O=C1C2C(c3ccccc3)C=CC(c3ccccc3)C2C(=O)N1c1ccncc1 (stereo unspecified),0.65
15,Cc1ccc2[nH]c3c(=S)nc[nH]c3c2c1,2.83
16,Cc1ccc(NP(=O)(Oc2ccccc2F)Oc2ccccc2F)cc1C,1.35
17,Cc1ccc(C(Sc2ccccc2)C(Cn2cncn2)C(=O)c2ccccc2)cc1 (stereo unspecified),0.97
18,O=c1nc(-c2ccccc2)cc(-c2ccccc2)[nH]1,2.21
19,Cc1nnc(SCC(=O)N2c3ccccc3C(C)(c3ccccc3)CC2(C)C)s1 (stereo unspecified),0.85
20,CCOc1ccc2cc(C#N)c(SCC(=O)NC(C)CC)nc2c1 (stereo unspecified),1.36
21,CCOC(=O)c1c(N)nn(C(=O)c2ccccc2)c1-c1ccccc1,2.88
22,Cc1cc(C#N)c(SCC(N)=O)nc1-c1ccc(F)cc1,1.4
23,Cc1cc(C)cc(OC2CCCCC2NS(=O)(=O)c2ccccc2)c1 (stereo unspecified),1.62
24,CCOC(=O)c1[nH]c2ccc(OC)cc2c1NS(=O)(=O)c1ccc(Cl)s1,2.87
25,Cc1ccc(C(=O)Nc2ccccc2C(=O)NCc2ccccc2)cc1,1.42
26,Cc1cc(-c2ccccc2)nc2cc(C(=O)N(Cc3ccccc3)Cc3ccccc3)nn12,1.03

row,SMILES,PGE2 EC50 with compound [nM]
1,Cc1noc(C)c1CSc1nc2sc3c(c2c(=O)n1C)CCCC3,1.46
2,S=C1NCCc2ccc(Cl)cc2C1c1ccccc1 (stereo unspecified),1.38
3,Cc1cccc(OCc2n[nH]c(=S)n2Cc2ccccc2)c1,1.31
4,Cc1cccc(NC2=NC(=S)N(c3ccc(C(=O)O)cc3)C23CCCCC3)c1,0.8
5,N#CCCSc1ncnc2c1oc1ccccc12,1.52
6,CC(C)N(CCNC(=O)c1oc(=O)c2ccccc2c1-c1ccccc1)Cc1ccco1,1.6
7,CCOc1nc(C)cc(C)c1S(=O)(=O)c1ccc(Cl)cc1,1.56
8,CCOC(=O)c1sc2nc3c(SCC(=O)O)cc(C(=O)c4cc(F)ccc4O)cn3c(=O)c2c1C,0.6
9,CC(C)C(=O)c1cc2c(cc1NC(=O)c1ccccc1)OCCO2,0.88
10,Cc1ccc(-n2c(Cc3cccc4ccccc34)n[nH]c2=S)c(C)c1,0.68
11,Cc1ccccc1NC1=C(C(=O)c2ccccc2)N(C)S(=O)(=O)c2ccccc21,1.01
12,CC(C)CCn1c(=O)c2ccccc2c2ccccc2c1=O,1.07
13,CC(OC(=O)c1oc2ccccc2c1COc1ccccc1)C(=O)NC(N)=O (stereo unspecified),2.83
14,O=P(c1ccccc1)(c1ccccc1)c1nc(-c2ccccc2)oc1NCc1ccccc1,0.33
15,O=C(Nc1ccccc1Sc1ccccc1)c1ccc(F)cc1,0.97
16,Cc1ccc(O)c(C2=Nc3ccccc3N=C(c3cccs3)C2)c1,1.17
17,C[C@H](C(=O)c1ccccc1)[C@@H](c1ccccc1)N1CCOCC1,1.43
18,Cc1cccc(-n2c(=S)[nH]c3c(oc4ccccc43)c2=O)c1,2.78
19,COC(=O)C1=C(C)N(C)C(C)=C(C(=O)OC)C1c1cccc(Br)c1,0.97
20,CSc1nc(Sc2ccccc2)c2ccccc2n1,1.6
21,CCCCn1c(-c2csc3c2CCCC3)n[nH]c1=S,1.25
22,Cc1ccc2nc(-c3ccncc3)cc(-c3ccccc3)c2c1,0.31
23,c1ccc(C2=Nc3ccccc3NC(c3ccccc3)C2)cc1 (stereo unspecified),2.58
24,C/C(=N\O)C(=O)OC1CC(C)CCC1C(C)C (stereo unspecified),0.88
25,CCn1c2ccccc2c2cc(Nc3cc(C)nc4ncnn34)ccc21,2.83
26,COc1ccccc1C(=O)NC(=S)Nc1cc(C(=O)O)ccc1C,1.18

row,SMILES,PGE2 EC50 with compound [nM]
1,COc1cc(C2Oc3cc(C4Oc5cc(O)cc(O)c5C(=O)C4O)ccc3OC2CO)ccc1O (stereo unspecified),1.15
2,Cc1ccccc1CN(C)CC(=O)Nc1ccccc1Oc1ccccc1,1.12
3,N#CCSc1nc2ccccc2c(=O)n1C1CCCCC1,1.09
4,CCN(Cc1cc(Cl)cc(C)c1O)Cc1c(O)ccc2ccccc12,0.84
5,CCn1c2ccc(OC)cc2c2nc3ccccc3nc21,2.47
6,CCOC(=O)c1c(NC(=O)c2ccn(CC)n2)sc2c1CCCC2,1.14
7,C#CCn1c(S(=O)(=O)Cc2ccccc2Cl)nc(-c2ccccc2)c1-c1ccccc1,2.66
8,Cc1cccc(C)c1OCc1nnc(SCC(=O)Nc2nccs2)n1-c1ccccc1,1.01
9,Cc1cccc2cc(CN(Cc3cccs3)C(c3nnnn3C3CCCC3)C(C)C)c(=O)[nH]c12 (stereo unspecified),0.99
10,COc1ccc(-c2cc(C(F)(F)F)nc(N3CCOCC3)n2)cc1OC,1.53
11,CN1C(=O)/C(=C/c2ccccc2OCc2cccc(F)c2)N(C)C1=S,0.81
12,N#Cc1c(-c2ccco2)nc(SCC(=O)Nc2cccc(Cl)c2)[nH]c1=O,1.15
13,c1ccc(-c2n[nH]nc2-c2ccccc2)cc1,0.9
14,COc1ccc(N=Cc2cc(Cc3ccccc3Cl)cc([N+](=O)[O-])c2O)cc1OC,0.65
15,CCN(CC)C(=O)CN(c1cc2c(cc1OC)oc1ccccc12)S(=O)(=O)c1ccc(C)cc1,1.2
16,c1ccc(C2Nc3ccccc3Oc3ccccc32)cc1 (stereo unspecified),0.85
17,COc1ccc(C(=O)Nc2cc(C)nn2-c2nc3ccccc3[nH]2)c(OC)c1,0.91
18,CCOc1ccc(OCC)c(NC(=O)CN2CCN(c3ccc(C)cc3C)CC2)c1,0.88
19,COc1ccc(OC(=O)c2cccc([N+](=O)[O-])c2)c(C(=O)/C=C/c2cccs2)c1,2.52
20,CCOC(=O)Cn1c(=S)[nH]c2c(oc3ccc(Cl)cc32)c1=O,2.77
21,CCOC(=O)c1cnn(-c2nc(-c3ccc(F)cc3)cs2)c1C(F)(F)F,1.04
22,COC(=O)c1ccc(-c2ccco2)n1Cc1ccccc1Cl,1.03
23,O=C(CN1CCCCCCC1)Nc1ccc(Cl)cc1Cl,1.11
24,O=C(O)CSc1ccc2ccccc2n1,2.79
25,O=C(c1ccccc1)C1CN(Cc2ccccc2)CCC1(O)c1ccccc1 (stereo unspecified),2.61
26,Cc1ccc2oc(=O)n(Cc3ccccc3OC(C)C)c2c1,0.64
